Measurements published in ChEMBL document CHEMBL1201862, “PubChem BioAssay data set” (2004).
The source made the active and inactive calls. Cut-off read from the data, not from the text of the source, for most assays here: actives have a measured EC50 and inactives only a lower limit.

Legend:
[1] = molecular target: T1, Rac GTPase-activating protein 1 (Homo sapiens, UniProt Q9H0H5); experiment: blockers of MgcRacGAP-driven Rac1 GTP hydrolysis – biochemical, ADP Hunter fluorescence, primary and confirmatory, confirmation (AID 624330); assay type: functional
T1 sequence (Q9H0H5 whole entry): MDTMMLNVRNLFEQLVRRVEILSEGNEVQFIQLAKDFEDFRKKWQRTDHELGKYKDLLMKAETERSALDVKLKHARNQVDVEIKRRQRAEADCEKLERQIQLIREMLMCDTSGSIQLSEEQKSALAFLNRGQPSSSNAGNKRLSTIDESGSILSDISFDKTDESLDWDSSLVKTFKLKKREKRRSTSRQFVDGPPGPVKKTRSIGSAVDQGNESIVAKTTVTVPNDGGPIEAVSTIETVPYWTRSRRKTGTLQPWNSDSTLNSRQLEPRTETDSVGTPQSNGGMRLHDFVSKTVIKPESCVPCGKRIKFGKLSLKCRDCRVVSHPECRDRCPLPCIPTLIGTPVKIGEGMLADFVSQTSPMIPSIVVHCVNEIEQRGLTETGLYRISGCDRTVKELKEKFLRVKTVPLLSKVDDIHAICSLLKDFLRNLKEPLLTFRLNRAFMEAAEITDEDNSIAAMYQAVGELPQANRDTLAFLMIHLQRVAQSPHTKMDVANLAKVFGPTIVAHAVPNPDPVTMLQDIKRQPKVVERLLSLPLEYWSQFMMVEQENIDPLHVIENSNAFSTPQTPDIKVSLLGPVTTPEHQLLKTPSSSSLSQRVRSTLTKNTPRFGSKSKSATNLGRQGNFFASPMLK

[2] = P. falciparum Dd2 growth inhibitors, dose response, SYBR Green, cherry-picked samples (AID 1159567); assay type: functional, cell-based
[3] = NIH-3T3 fibroblast cytotoxicity, dose response, cytotoxicity control, cell-based, fluorescence, Alamar Blue, secondary assay (AID 2327); assay type: functional;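 note: NIH-3T3 mouse fibroblasts cultured with fluconazole at 8 µg/mL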
[4] = tested on: Streptococcus sp. 'group A'; experiment: Streptococcus pyogenes SK(-)GAS viability under kanamycin – luminescence, BacTiterGlo, confirmation, counter-screen for streptokinase expression inhibitor project, dose response (AID 1900); assay type: functional, organism-based
Streptokinase A = molecular target: T2, Streptokinase A (Streptococcus pyogenes serotype M1, UniProt P10520); experiment: viability-normalized secreted streptokinase activity reduction – plasminogen activation absorbance, OD405, dose response (AID 1914); assay type: functional, Streptococcus pyogenes M1 GAS;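 note: secreted streptokinase activity via plasminogen activation per viability signal from cell pellet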
T2 sequence (P10520 whole entry): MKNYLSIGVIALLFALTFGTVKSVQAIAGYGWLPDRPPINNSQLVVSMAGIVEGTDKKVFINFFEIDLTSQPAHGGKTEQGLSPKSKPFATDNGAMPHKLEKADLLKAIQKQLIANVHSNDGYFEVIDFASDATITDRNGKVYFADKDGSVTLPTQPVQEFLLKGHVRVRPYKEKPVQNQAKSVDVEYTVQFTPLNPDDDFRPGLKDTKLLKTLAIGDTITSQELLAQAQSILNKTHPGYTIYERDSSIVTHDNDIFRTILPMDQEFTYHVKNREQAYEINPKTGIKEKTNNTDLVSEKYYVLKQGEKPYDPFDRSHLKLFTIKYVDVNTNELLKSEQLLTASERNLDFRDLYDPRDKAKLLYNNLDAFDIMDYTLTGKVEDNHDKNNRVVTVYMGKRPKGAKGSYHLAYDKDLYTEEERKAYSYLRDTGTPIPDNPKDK

[5] = fluconazole-exposed Candida albicans growth modulators – fluorescence, retest, confirmation (AID 2467); assay type: functional, cell-based
Streptococcus = experiment: GAS UMAA2166 growth inhibition – luminescence, BacTiterGlo, counter-screen for streptokinase expression inhibitor project, dose response (AID 1915); assay type: functional, organism-based;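 note: potency for reduction of bacterial viability or growth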
Paired box protein Pax-8 = Paired box protein Pax-8 (Homo sapiens, UniProt Q06710); experiment: PAX8 transcriptional activity inhibition in RMG-I – RMG-I cells, luciferase, cherry-pick, dose response (AID 687027); assay type: functional, cell-based;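 note: luciferase reporter driven by Pax8 target thyroperoxidase promoter measured by SteadyGlo luminescence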
P388/ADR = experiment: cells; assay type: functional; conditions: Mus musculus
[6] = luciferase reporter signal suppression in cells – H4 neuroglioma cells, luminescence, dose response (AID 1990); assay type: functional, cell-based
[7] = Luminescence Cell-Based Dose Response HTS to Identify Inhibitors of 5'UTR Stem-Loop Driven Prion Protein mRNA Translation in H4 Neuroglioblastoma Cells. [Related pubchem assays: 1827 (Project Summary), 1813 (Primary HTS)]; assay type: functional
[8] = alpha-synuclein stem-loop luciferase translation blockers – H4 neuroglioma cells, luminescence, confirmation (AID 1988); assay type: functional, cell-based
SN12K1 = experiment: cells; assay type: functional; conditions: Homo sapiens
[9] = molecular target: T3, Replicative DNA helicase DnaB (Mycobacterium tuberculosis, UniProt P9WMR3); experiment: DnaB intein splicing inhibitors, dose response, biochemical, cell-free fluorescence (AID 449749); assay type: functional
T3 sequence (P9WMR3 whole entry): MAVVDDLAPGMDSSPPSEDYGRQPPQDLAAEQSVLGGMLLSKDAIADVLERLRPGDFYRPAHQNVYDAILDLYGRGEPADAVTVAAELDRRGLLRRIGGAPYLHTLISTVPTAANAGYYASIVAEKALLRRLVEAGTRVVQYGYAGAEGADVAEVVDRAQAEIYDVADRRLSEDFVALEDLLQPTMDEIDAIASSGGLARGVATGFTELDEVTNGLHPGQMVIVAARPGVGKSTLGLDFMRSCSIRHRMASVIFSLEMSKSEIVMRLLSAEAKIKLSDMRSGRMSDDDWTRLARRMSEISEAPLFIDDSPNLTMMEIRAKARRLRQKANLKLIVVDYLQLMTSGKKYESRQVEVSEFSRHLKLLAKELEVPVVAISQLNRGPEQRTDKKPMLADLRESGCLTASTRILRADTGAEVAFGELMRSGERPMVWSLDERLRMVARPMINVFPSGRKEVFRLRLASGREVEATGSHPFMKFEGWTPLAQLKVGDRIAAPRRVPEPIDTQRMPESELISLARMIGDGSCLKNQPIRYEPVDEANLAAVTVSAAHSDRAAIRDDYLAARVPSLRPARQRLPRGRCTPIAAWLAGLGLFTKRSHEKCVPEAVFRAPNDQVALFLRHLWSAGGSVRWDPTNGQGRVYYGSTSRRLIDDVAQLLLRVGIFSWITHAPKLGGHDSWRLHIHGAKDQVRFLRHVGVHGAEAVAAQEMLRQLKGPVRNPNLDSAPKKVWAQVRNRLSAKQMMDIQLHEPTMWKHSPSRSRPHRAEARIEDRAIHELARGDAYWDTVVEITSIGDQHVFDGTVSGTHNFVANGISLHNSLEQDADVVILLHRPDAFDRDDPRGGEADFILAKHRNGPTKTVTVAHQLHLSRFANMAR

Protein RecA = molecular target: T4, Protein RecA (Mycobacterium tuberculosis, UniProt P9WHJ3); experiment: Fluorescence Cell-Free Homogeneous Dose Retest to Identify Inhibitors of RecA-Intein Splicing Activity. [Related pubchem assays (depositor defined):AID2097, AID2223, AID489010, AID492950]; assay type: functional
T4 sequence (P9WHJ3 whole entry): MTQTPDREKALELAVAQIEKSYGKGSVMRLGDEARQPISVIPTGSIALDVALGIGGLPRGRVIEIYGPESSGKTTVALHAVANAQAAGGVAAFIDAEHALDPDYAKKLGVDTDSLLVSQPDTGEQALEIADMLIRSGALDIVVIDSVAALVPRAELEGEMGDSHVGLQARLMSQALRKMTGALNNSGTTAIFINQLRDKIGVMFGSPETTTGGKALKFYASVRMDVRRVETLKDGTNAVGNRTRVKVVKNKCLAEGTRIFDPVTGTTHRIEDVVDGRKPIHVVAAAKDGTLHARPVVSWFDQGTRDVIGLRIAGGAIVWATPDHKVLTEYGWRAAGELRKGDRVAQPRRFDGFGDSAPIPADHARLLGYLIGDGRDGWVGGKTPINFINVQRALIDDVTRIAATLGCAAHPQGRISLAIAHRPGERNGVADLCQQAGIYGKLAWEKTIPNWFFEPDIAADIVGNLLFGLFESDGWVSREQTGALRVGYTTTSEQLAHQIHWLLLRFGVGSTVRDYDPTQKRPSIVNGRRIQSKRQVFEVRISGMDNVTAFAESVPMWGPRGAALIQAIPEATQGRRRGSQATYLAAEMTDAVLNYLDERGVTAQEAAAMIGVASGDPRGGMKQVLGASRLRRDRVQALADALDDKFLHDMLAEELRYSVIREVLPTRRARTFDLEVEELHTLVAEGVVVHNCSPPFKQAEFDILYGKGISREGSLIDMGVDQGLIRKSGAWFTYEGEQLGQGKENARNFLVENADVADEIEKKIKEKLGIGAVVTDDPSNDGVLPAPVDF

[10] = Trypanosoma cruzi growth suppression in host cells – NIH3T3 host cells, beta-gal luminescence, confirmation (AID 2044); assay type: functional, cell-based;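 note: intracellular parasites grown in NIH/3T3 mouse fibroblasts as host cells; luminescent beta-galactosidase reporter signal from transgenic T. cruzi replicating inside host cells; inhibitors lower the luminescence signal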
[11] = NIH3T3 cell viability loss – ATP luminescence, mouse fibroblasts, counter-screen, dose response (AID 2010); assay type: functional, cell-based;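 note: cells exposed to compound for about 90 hours before reading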

Paired box protein Pax-8, sequence (Q06710 whole entry): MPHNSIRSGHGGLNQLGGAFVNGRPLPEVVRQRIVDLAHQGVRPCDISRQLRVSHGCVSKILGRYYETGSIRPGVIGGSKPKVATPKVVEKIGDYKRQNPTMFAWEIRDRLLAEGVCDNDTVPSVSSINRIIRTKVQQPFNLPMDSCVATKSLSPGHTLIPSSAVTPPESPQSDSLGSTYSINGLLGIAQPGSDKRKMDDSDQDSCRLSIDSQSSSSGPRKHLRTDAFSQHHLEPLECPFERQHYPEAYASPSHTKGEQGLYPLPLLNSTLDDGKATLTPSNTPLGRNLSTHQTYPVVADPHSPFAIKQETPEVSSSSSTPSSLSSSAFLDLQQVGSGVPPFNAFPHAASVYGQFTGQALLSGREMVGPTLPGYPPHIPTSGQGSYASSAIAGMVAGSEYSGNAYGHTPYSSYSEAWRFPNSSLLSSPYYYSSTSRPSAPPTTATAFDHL

Structure (SMILES): CCOC(=O)/C(C#N)=C1\C(=O)N(Cc2ccccc2)c2ccccc21
- IC50 [1]: 42.4 µM (active)

Structure (SMILES): CN(C)CC(=O)N1[C@H](CO)[C@H](c2ccc(C#CC3CCCCC3)cc2)[C@@H]1C#N
- AC50 [2]: 8.31 µM (active)

Structure (SMILES): CCN(Cc1ccccc1)C1CCN(Cc2ccc(SC)cc2)CC1
- IC50 [1]: 100 µM (active)

Structure (SMILES): CCOC(=O)C1CCN(C(=O)c2ccc3c(=O)n4nc(Nc5cc(C)ccc5C)sc4nc3c2)CC1
- EC50 [3]: > 150 µM (inactive)
- EC50 [4]: 9.44 µM (active)
- EC50 (Streptokinase A): > 150 µM (not active)
- EC50 [5]: 2.55 µM (active)
- EC50 (Streptococcus): 37.4 µM (active)

Structure (SMILES): C[C@H](CO)N1C[C@H](C)[C@H](CN(C)C(=O)Nc2ccc(N3CCCCC3)cc2)OCc2cnnn2CCCC1=O
- AC50 [2]: > 39 µM (inactive)

Structure (SMILES): C[C@H]1CN([C@@H](C)CO)C(=O)c2ccccc2-c2ccccc2CO[C@H]1CN(C)Cc1ccc(Oc2ccccc2)cc1
- AC50 [2]: 4.26 µM (active)

Structure (SMILES): Cc1ccc(N2C(S)=C(C#N)C(=O)NC2c2cccs2)cc1 (stereo not drawn)
- IC50 [1]: 128 µM (active)

Structure (SMILES): Oc1ccc(-c2nccs2)cc1
- IC50 [1]: 28.1 µM (active)

Structure (SMILES): O=C(N/N=C/c1ccc(O)cc1)NC12CC3CC(CC(C3)C1)C2
- IC50 [1]: 55.9 µM (active)

Structure (SMILES): CC1(C)OC(C)(C)C(/C=N/c2ccc(O)cc2)=C1O
- IC50 [1]: 17 µM (active)

Structure (SMILES): COc1ccc(S(=O)(=O)Nc2ccc3c(c2)C(=O)N([C@@H](C)CO)C[C@H](C)[C@H](CN(C)Cc2ccc(C(F)(F)F)cc2)OCCCC[C@@H](C)O3)cc1
- AC50 (Paired box protein Pax-8): 7.68 µM (active)

Structure (SMILES): O=C(CNCc1ccc(Cl)cc1)Nc1ccc2c(c1)OCCO2
- IC50 [1]: 156 µM (active)

Structure (SMILES): COc1cc(C(=O)NCC(c2cccs2)N2CCOCC2)ccc1OCc1ccc(Cl)cc1 (stereo not drawn)
- AC50 (Paired box protein Pax-8): 22 µM (active)

Structure (SMILES): C/C=C(\C)C(=O)OC1C2C(C)=CC(=O)C(O)C2(C)C2C3(O)OCC24C1OC(=O)C(OC(C)=O)C4C(C)C3O (stereo not drawn)
- GI50 (P388/ADR): 0.319 µM (active)

Structure (SMILES): O=C(NCc1ccccn1)c1ccc(Cn2c(=S)[nH]c3ccc(Br)cc3c2=O)cc1
- EC50 [6]: > 120 µM (not active)
- EC50 [7]: > 120 µM (not active)
- EC50 [8]: > 120 µM (not active)

Structure (SMILES): COc1ccc(F)cc1-c1cc(NC=O)c2ncc(-c3cc(OC)c(OC)c(OC)c3)n2c1
- AC50 (Paired box protein Pax-8): 3.49 µM (active)

Structure (SMILES): CC(C)C(=O)Nc1cccc(C(=O)Nc2ccccc2C(=O)O)c1
- EC50 [6]: 47.8 µM (active)
- EC50 [7]: > 120 µM (not active)
- EC50 [8]: > 120 µM (not active)

Structure (SMILES): O=C(NCCCl)O/N=C/c1cccnc1
- GI50 (P388/ADR): 52.5 µM (inactive)
- GI50 (SN12K1): > 100 µM (inactive)

Structure (SMILES): Cc1ccc(S(=O)(=O)Nc2ccc3c(c2)C(=O)N([C@H](C)CO)C[C@H](C)[C@H](CN(C)C(=O)c2ccccc2)OCCCC[C@H](C)O3)cc1
- AC50 (Paired box protein Pax-8): 19.4 µM (active)

Structure (SMILES): CC(NCc1ccc(S(N)(=O)=O)cc1)C(=O)N1c2ccccc2CC1C (stereo not drawn)
- IC50 [1]: 135 µM (active)

Structure (SMILES): O=c1c2ccccc2nc(-c2ccc([N+](=O)[O-])cc2)n1O
- EC50 [3]: > 150 µM (inactive)

Structure (SMILES): COc1cc(N)c(Cc2nccc3cc(OC)c(OC)cc23)cc1OC
- AC50 [9]: > 380 µM (inactive)
- EC50 (Protein RecA): 31.7 µM (active)

Structure (SMILES): Cc1cccc2c1Sc1ccc(Cl)cc1CC2N1CCNCC1 (stereo not drawn)
- EC50 [6]: > 120 µM (not active)
- EC50 [7]: 116 µM (active)
- EC50 [8]: 11.7 µM (active)
- EC50 [10]: 3.13 µM (active)
- EC50 [11]: 12.9 µM (active)

Structure (SMILES): CCNC(=O)c1ccccc1-c1nc(-c2ccccc2)no1
- AC50 [9]: > 380 µM (inactive)
- EC50 (Protein RecA): > 380 µM (inactive)

Structure (SMILES): COC(=O)c1ccccc1OC(=O)c1ccc(Br)o1
- AC50 [9]: 12.8 µM (active)
- EC50 (Protein RecA): 15.2 µM (active)

Structure (SMILES): COc1cccc(C2Nc3ccccc3C(=O)N2Cc2ccccc2)c1 (stereo not drawn)
- EC50 [6]: > 120 µM (not active)
- EC50 [7]: > 120 µM (not active)
- EC50 [8]: > 120 µM (not active)

Structure (SMILES): Cc1onc(-c2c(Cl)cccc2Cl)c1C(=O)N1C(C)CCCC1C (stereo not drawn)
- AC50 [9]: 118 µM (active)
- EC50 (Protein RecA): > 380 µM (inactive)

Structure (SMILES): Cc1cc2c(cc(C(=O)OCC(=O)NCc3ccco3)n2C)s1
- EC50 [3]: 22.4 µM (active)
- EC50 [5]: > 38 µM (not active)
